Consider one molecule from patent US20150119244A1, “AGRICULTURAL USES OF HYTd” (Agrinos AS, priority 2011, published 2015).

In the assay the test system is potatoes. Briefly: Potato trial in soil infested with fungi, test vs Metam-Sodium (Example 4).

Source text: Three hundred liters of Metam Sodium was applied per hectare.

Consider `CNC(=S)S` [Metam-Sodium], for which the Kilos turned out to be 0.32 Kilos (potatoes of size 1st); 3.63 Kilos (potatoes of size 4ta); 6.46 Kilos (potatoes of size 2d); 2.67 Kilos (potatoes of size 3d); 0.43 Kilos (potatoes of size GIANT); 1.47 Kilos (potatoes of size MONO). Also, the Kilos (potatoes, TOTAL of all sizes) worked out at 15.0 Kilos. In addition, the Pieces (potatoes of size 1st) is 1; the Pieces (potatoes of size 4ta) was 88; the Pieces (potatoes of size 2d) was found to be 35; the Pieces (potatoes of size 3d) is on record as 24; the Pieces (potatoes of size GIANT) came to 1; the Pieces (potatoes of size MONO) was determined as 6. The molecule also showed a Pieces (potatoes, TOTAL of all sizes) of 155.
